Reference: US10487071B2, “Bis-triazole compounds with anti-biofilm and anti-corrosion properties” (Université de Toulon, priority 2015, dated 2019)
Read-outs that look alike come from different tables or passages of the source.

Assays:
[1] = Electrochemical impedance spectroscopy, corrosion inhibition; conditions: 200 ppm; mild steel in 1N HCl; EIS
Method: The corrosion rates were determined by electrochemical impedance spectroscopy measurements and gravimetry.
The electrochemical measurements were performed on a 273 A potentiostat (EGG/PAR) coupled to a Solartron 1255 frequency response analyser. EIS measurements were carried out with a solution containing 1N HCl in the absence and presence of the tested compound at a concentration of 200 ppm under unstirred conditions, at open circuit potential with a 10 mV rms amplitude perturbation over a 20 mHz-100 kHz frequency range.
EIS data were registered and analysed using Zview software (Scribners Associates, USA).
A conventional three-electrode cell was used. It comprises a platinum foil as auxiliary electrode, a saturated calomel reference electrode (SCE) and a mild steel coupon as the working electrode with a surface area of 15.7 cm^2.
Electrochemical impedance spectroscopic (EIS) studies have been conducted to investigate corrosion inhibition processes of compounds of the invention according to the Electrochemical impedance spectroscopic test method described herein.
The high frequency loop was analyzed in terms of an equivalent circuit involving a parallel combination of Rct and the constant phase element of double layer (CPE). The inhibition efficiency, IE (%), was estimated from the measured Rct values using the following equation: […]

Paracoccus sp. (4M6) [2] = assay: Anti-adhesion test, strain 4M6; format: cell-based; conditions: Paracoccus; for activity at 200 µM: 15 h, read-out: % of adhesion at 200 μM, 4M6; for EC50: read-out: EC50 (effective concentration to inhibit 50% of the adhesion), 4M6
Outline: (§1)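 Stationary-phase bacteria grown in VNSS, diluted in artificial sea water and incubated about 15 h with compound at eight concentrations in triplicate, DMSO up to 2%. Adhered cells stained with SYTO 61 (1 μM). EC50 from a sigmoid fit of % inhibition against log concentration.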

[3] = Gravimetry (weight loss), corrosion inhibition; conditions: mild steel in 1N HCl
Outline: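 Mild steel coupons (2.5×2.0×0.1 cm) immersed in non-de-aerated 1N HCl without or with various inhibitor concentrations, then washed, dried and reweighed; duplicate runs. IE (%) calculated from corrosion rates without (CR^o) and with (CR) inhibitor.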

[4] = system: Pseudoalteromonas lipolytica (TC8); assay: Anti-adhesion test, strain TC8; format: cell-based; conditions: Pseudoalteromonas lipolytica; for activity at 200 µM: 15 h, read-out: % of adhesion at 200 μM, TC8; for EC50: read-out: EC50 (effective concentration to inhibit 50% of the adhesion), TC8
Outline: as §1

[5] = system: Pseudoalteromonas ulvae (TC14); assay: Anti-adhesion test, strain TC14; format: cell-based; conditions: Pseudoalteromonas ulvae; for activity at 200 µM: 15 h; for EC50: read-out: EC50 (effective concentration to inhibit 50% of the adhesion)
Outline: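 Stationary-phase TC14 cells grown in VNSS, diluted in artificial seawater and incubated with compound at eight concentrations in triplicate (DMSO ≤2%) for about 15 h. Non-adhered bacteria removed and adhered cells quantified by SYTO 61 (1 μM) staining. EC50 derived from sigmoid fit of % inhibition versus log concentration.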

Polaribacter sp. (TC5) [6] = assay: Toxicity test, strain TC5; format: cell-based; conditions: for CC50: read-out: LC50 (necessary concentration to kill 50% of the bacteria)
Source text: (§2) Polaribacter sp. (TC5) was isolated in June 2010 in the Military Harbor of Toulon (Mediterranean Sea, France) as described in F. Brian-Jaisson, A. Ortalo-Magné, L. Guentas-Dombrowsky, F. Armougom, Y. Blache, M. Molmeret, Microb. Ecol., 2014, 68, 94-110.

[7] = system: marine bacterial strains (TC14, TC8, 4M6, TC5 and TC11); assay: Toxicity test, summary over the strains; format: cell-based; conditions: comparison with reference biocides
Source text: (§3) In examples 64 and 65, the following marine bacterial strains are used.

Shewanella sp. (TC11) [8] = assay: Toxicity test, strain TC11; format: cell-based
Source text: (§4) Shewanella sp. (TC11) was isolated in June 2010 in the Military Harbor of Toulon (Mediterranean Sea, France) as described in F. Brian-Jaisson, A. Ortalo-Magné, L. Guentas-Dombrowsky, F. Armougom, Y. Blache, M. Molmeret, Microb. Ecol., 2014, 68, 94-110.

Paracoccus sp. (4M6) [9] = assay: microbe, parasite or virus in culture; conditions: for CC50: Paracoccus, read-out: LC50 (necessary concentration to kill 50% of the bacteria), 4M6; for IS: LC50/EC50 (selectivity index), 4M6: strain 4M6
Source text: (§5) The anti-adhesion bioassays and toxicity tests are adapted from those disclosed in M. Camps, J.-F. Briand, L. Guentas-Dombrowsky, G. Culioli, A. Bazire and Y. Blache, Mar. Poll.
(§6) After growth on VNSS, bacterial strains were harvested during the exponential phase. The microtiter plates (sterile transparent PS; Nunc, Fisher Scientific) were filled as described in the Anti-adhesion test method using VNSS instead of ASW to allow bacterial growth. The growth was followed by measuring the turbidity (OD600 nm) every hour during 6 or 7 hours. Then, resazurin (50 μM) was added in all the wells, and fluorescence was measured after 2 h to quantify the percent of bacterial viability. The same methodology used with SYTO 61 was applied to calculate a percent of viability after resazurin staining.

[10] = system: Pseudoalteromonas lipolytica (TC8); assay: microbe, parasite or virus in culture; conditions: for CC50: Pseudoalteromonas lipolytica, read-out: LC50 (necessary concentration to kill 50% of the bacteria), TC8; for IS: LC50/EC50 (selectivity index), TC8: strain TC8
Source text: as §5, §6

[11] = system: marine bacterial strains (TC14, TC8, 4M6, TC5 and TC11); assay: Anti-adhesion test, summary over the strains; format: cell-based; conditions: for EC50 compared with TBTO/ZINEB: comparison with reference biocides
Method: (§7) Bacterial strains were grown on Väätänen nine-salts solution (VNSS). When the stationary phase was reached, the bacterial suspension was centrifuged. Cells were then diluted in sterile artificial sea water (ASW) and introduced in microtiter plates (sterile black PS; Nunc, Fisher Scientific, France) with the tested compound (at eight concentrations in three replicates) in the presence of three controls: (i) non-specific staining control, (ii) adhesion control, and (iii) positive control. The maximum percentage of solvent (DMSO 2%) used to dilute the tested compound was also tested in triplicate as additional control. After incubation during an optimized adhesion time (moderately 15 h), non-adhered bacteria were eliminated and adhered cells were quantified after SYTO 61 (1 μM) staining. A percentage of inhibition was calculated per well. A sigmoid dose-response curve was obtained by plotting the percentage of inhibition as a function of the log of tested compound concentration, after mean (n=3) and standard deviation (SD) calculation per triplicate for each concentration. EC50 values were then calculated for each compound.
as §3

Polaribacter sp. (TC5) [12] = assay: Anti-adhesion test, strain TC5; format: cell-based; conditions: for activity at 200 µM: 15 h; for EC50: read-out: EC50 (effective concentration to inhibit 50% of the adhesion)
Method: as §7, §2

[13] = system: Pseudoalteromonas ulvae (TC14); assay: Toxicity test, strain TC14; format: cell-based
Source text: Pseudoalteromonas ulvae (TC14) was isolated in June 2010 in the Military Harbor of Toulon (Mediterranean Sea, France) as described in F. Brian-Jaisson, A. Ortalo-Magné, L. Guentas-Dombrowsky, F. Armougom, Y. Blache, M. Molmeret, Microb. Ecol., 2014, 68, 94-110.

Shewanella sp. (TC11) [14] = assay: Anti-adhesion test, strain TC11; format: cell-based; conditions: for activity at 200 µM: 15 h, strain TC11, read-out: % of adhesion at 200 μM, TC11; for EC50: read-out: EC50 (effective concentration to inhibit 50% of the adhesion), strain TC11
Method: as §7, §4

[15] = read-out: inhibition of the adhesion of at least four marine bacterial strains
[16] = read-out: inhibition of the adhesion of at least two marine bacterial strains

Row | Compound | activity at 200 µM (Paracoccus sp. (4M6) [2]) [%] | IE % ([3]; 0.1 ppm) [%] | IE % ([3]; 0.3 ppm) [%] | IE % ([3]; 0.5 ppm) [%] | IE % ([3]; 2 ppm) [%] | IE % ([3]; 10 ppm) [%] | activity at 200 µM [4] [%] | EC50 [4] [µM] | activity at 200 µM [5] [%] | EC50 [5] [µM] | IS: LC50/EC50 (selectivity index), TC5 (Polaribacter sp. (TC5) [6]) | CC50 (Polaribacter sp. (TC5) [6]) [µM] | toxicity by LC50 values compared with TBTO/ZINEB [7] | IS: LC50/EC50 (selectivity index), TC11 (Shewanella sp. (TC11) [8]) | LC50 (necessary concentration to kill 50% of the bacteria), TC11 (Shewanella sp. (TC11) [8]) [µM] | EC50 (Paracoccus sp. (4M6) [2]) [µM] | CC50 (Paracoccus sp. (4M6) [9]) [µM] | IS: LC50/EC50 (selectivity index), 4M6 (Paracoccus sp. (4M6) [9]) | CC50 [10] [µM] | IS: LC50/EC50 (selectivity index), TC8 [10] | other results
1 | CN(C)CCOc1ccc(CCn2cc(CNCc3cn(CCc4ccc(OCCN(C)C)c(Br)c4)nn3)nn2)cc1Br [AS164] | 51.7 ± 4.3 | 57.10 | 90.49 | 89.20 | 92.42 | 97.20 | 47.1 ± 1 | 176 ± 3 | 40.8 ± 5 | 126 ± 21.5 |  |  |  |  |  |  |  |  |  |  | inhibition efficiency (IE %) from Rct values [1]: around 95%; inhibition efficiency from weight loss experiments ([3]; 25-200 ppm): greater than 97%
2 | CN(C)CCOc1c(Br)cc(CCn2cc(-c3ccc(-c4cn(CCc5cc(Br)c(OCCN(C)C)c(Br)c5)nn4)cc3)nn2)cc1Br [SA33, 2-(4-(2-(4-(4-(1-(4-(2-(dimethylamino)ethoxy)-3,5-dibromophenethyl)-1H-1,2,3-triazol-4-yl)phenyl)-1H-1,2,3-triazol-1-yl)ethyl)-2,6-dibromophenoxy)-N,N-dimethylethanamine] | 7.4 ± 8.3 | 87.08 | 95.37 | 95.89 | 96.25 | 96.03 | 6.8 ± 4.3 | 42.5 ± 16.9 | 6.3 ± 1.3 | 20.4 ± 1.2 | 4.8 | 92.6 | less toxic than ZINEB | 4.2 | 134.8 | 11.3 ± 9.1 | 126 | 11.2 | 199 | 4.7 | EC50 compared with TBTO/ZINEB [11]: comparable to that of ZINEB; inhibition at 200 µM [11, 15]: ≥ 85%; inhibition at 200 µM [11, 16]: ≥ 65%; activity at 200 µM (Polaribacter sp. (TC5) [12]): 0.7 ± 0.7%; EC50 (Polaribacter sp. (TC5) [12]): 19.2 ± 2.1 µM; IS: LC50/EC50 (selectivity index), TC14 [13]: 12.45; LC50 (necessary concentration to kill 50% of the bacteria), TC14 [13]: 254.1 µM; activity at 200 µM (Shewanella sp. (TC11) [14]): 4.4 ± 2.7%; EC50 (Shewanella sp. (TC11) [14]): 32 ± 8.1 µM
3 | CN(C)CCCOc1c(Br)cc(CCn2cc(-c3ccc(-c4cn(CCc5cc(Br)c(OCCCN(C)C)c(Br)c5)nn4)cc3)nn2)cc1Br [SA34, 3-(4-(2-(4-(4-(1-(4-(3-(dimethylamino)propoxy)-3,5-dibromophenethyl)-1H-1,2,3-triazol-4-yl)phenyl)-1H-1,2,3-triazol-1-yl)ethyl)-2,6-dibromophenoxy)-N,N-dimethylpropan-1-amine] | 8.2 ± 3.5 | 52.40 | 70.39 | 92.23 | 96.25 | 95.69 | 10.2 ± 3.1 | 50.5 ± 10.9 | 13 ± 7.7 | 13.1 ± 1 | 20.5 | 94.3 | less toxic than ZINEB | 4.3 | 115.9 | 1.5 ± 2.1 | 114 | 75.7 | 174 | 3.5 | EC50 compared with TBTO/ZINEB [11]: comparable to that of ZINEB; inhibition at 200 µM [11, 15]: ≥ 85%; inhibition at 200 µM [11, 16]: ≥ 65%; activity at 200 µM (Polaribacter sp. (TC5) [12]): 7.9 ± 7.3%; EC50 (Polaribacter sp. (TC5) [12]): 4.6 ± 6.3 µM; IS: LC50/EC50 (selectivity index), TC14 [13]: 10.1; LC50 (necessary concentration to kill 50% of the bacteria), TC14 [13]: 132 µM; activity at 200 µM (Shewanella sp. (TC11) [14]): 7 ± 3.12%; EC50 (Shewanella sp. (TC11) [14]): 27.2 ± 0.5 µM
